Experiments:
[1] = molecular target: T1, TX synthase (TXS) (Homo sapiens, UniProt P24557); assay: TXB2 synthesis following addition of exogenous PGH2 to U937 cells; type: cell-based; conditions: 1, 10, 100 μM, undifferentiated U937 cells, PGH2 5 μM
T1 construct: endogenous in cells; host or cells: undifferentiated U937 cells
T1 sequence (P24557 1-533): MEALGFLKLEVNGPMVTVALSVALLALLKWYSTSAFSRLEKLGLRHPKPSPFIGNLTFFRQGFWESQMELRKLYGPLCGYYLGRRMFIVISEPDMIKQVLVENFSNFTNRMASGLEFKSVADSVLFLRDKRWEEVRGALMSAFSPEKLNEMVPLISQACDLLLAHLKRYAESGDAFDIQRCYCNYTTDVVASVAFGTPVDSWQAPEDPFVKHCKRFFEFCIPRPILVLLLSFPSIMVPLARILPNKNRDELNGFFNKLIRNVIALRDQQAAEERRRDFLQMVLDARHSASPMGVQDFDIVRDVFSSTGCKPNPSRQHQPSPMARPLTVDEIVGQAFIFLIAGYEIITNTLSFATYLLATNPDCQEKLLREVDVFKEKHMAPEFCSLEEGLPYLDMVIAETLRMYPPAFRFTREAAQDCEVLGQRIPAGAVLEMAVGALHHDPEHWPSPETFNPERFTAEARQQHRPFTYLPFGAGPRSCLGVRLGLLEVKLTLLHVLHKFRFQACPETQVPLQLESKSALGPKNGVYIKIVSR
Method: To examine effects of test compounds directly on TX synthase (TXS), a different assay system was used. Whereas arachidonic acid (AA) is the substrate for COX, PGH2 is the substrate for TX synthase. To examine directly the effect of these compounds on TXS, exogenous ? elow:
Test compounds at 0 μM, 1 μM, 10 μM and 100 μM (in DMSO) were incubated with undifferentiated U937 cells (6×10^6/ml) for 30 min at 37° C., after which PGH2 (5 μM) was added. After incubation for 10 min, the reaction was terminated by centrifugation and the supernatants were collected and TXB2 production was measured in triplicate by RIA. ANOVA followed by Newman-Keuls multiple comparisons test was used to examine differences between doses and the control values. A statistical significance level of 0.05 was used and differences from control values are indicated by an asterisk (*).

[2] = tested on: NO synthesis in mouse macrophage cell line RAW 264.7; assay: Inhibition of nitric oxide synthesis (Griess reaction); type: cell-based; conditions: 10 μM
Method: Exposure of various cells (e.g. macrophages and smooth muscle cells) to bacterial LPS and proinflammatory cytokines induces iNOS which generates NO. NO production can be indirectly quantified by measurement of nitrite (NO2—), a stable breakdown product of NO. The mouse macrophage cell line RAW 264.7 was cultured in DMEM supplemented with FCS, 2 mM glutamine and 50 U/ml penicillin/streptomycin. Cells were treated with either test compound at 10 μM (in 0.125% DMSO) or vehicle alone, together with 10 ng/ml LPS. After incubation for 24 hrs, culture media was collected and analysed immediately for NO concentration using the Griess reaction (Eigler et al. 1995).

[3] = tested on: AA-induced ear inflammation; assay: Murine ear inflammation induced by arachidonic acid; type: in vivo, mice (BALB/c); conditions: for Increase in ear thickness (mean ± SD, ×0.01 mm): 25 mg/kg i/p, 1 hr post-AA application
Source text: Compounds were examined for their ability to inhibit ear swelling in mice induced by the topical application of arachidonic acid (AA). The inflammatory response due AA, the immediate precursor of the eicosanoids, is due to formation of AA metabolites via both the cyclooxygenase (COX) and lipoxygenase (LOX) pathways (Young et al. 1984). AA induces an increase in both PGE2 and LTC4 synthesis which precedes the increase in ear thickness (Opas et al. 1985; Chang et al. 1986).
Female BALB/c mice (ARC, WA, Australia), weighing 15-21 g were injected with Compound 2 delivered in polyethylene glycol (PEG) 400:phosphate buffered saline (PBS) 1:1 intraperitoneally (i/p) at a dose of 25 mg/kg either 30 min prior to or immediately before the application of AA to the ears. Mice were anaesthetized using isoflurane and baseline thickness of both ears was measured using a spring micrometer. Each mouse received a total of 20 μL of AA in ethanol (50 mg/ml) applied to the inner and outer surfaces of each pinna (i.e. 0.5 mg AA per ear). Mice were anaesthetized again to remeasure the ears at 1 hr post-AA application.
The difference in ear swelling pre- and post-application of AA for each ear was calculated, and the average for the two ears of each mouse calculated. The difference in mean swelling of each test group compared to the group given vehicle alone was calculated using a two-tailed unpaired t test (Prism 4, GraphPad Software).

[4] = tested on: UV irradiation-induced skin oedema; assay: Murine model of UV irradiation-induced skin oedema; type: in vivo, mice (Skh:hr-1 albino); conditions: for Increase in skin thickness (mean ± SD, ×0.01 mm): topical 0.2 ml of 20 μM at 30 min, 2 h, 4 h; for skin oedema, in words: 48 hrs, topical
Source text: Groups of 4-5 female Skh:hr-1 albino mice were irradiated with 1×3 MEdD (minimal edematous dose) of solar simulated UV radiation (SSUV). Solar-simulated ultraviolet radiation (SSUV) was provided by a planar bank of 6 UVA tube (Hitachi 40 W F40 T 10/BL, black light) and one UVB tube (Philips TL 40 W/12 RS) with radiation filtered through a sheet of 0.125 mm cellulose acetate (Eastman Chemical Products, Kingport, Term, USA) to give 2.96×10-4 W/cm2 UVA and 1.59×10-5 W/cm2 UVB. During irradiation, the cages were rotated below the lights to reduce the variation in radiation intensity in different positions.
Either test compound (0.2 ml of a 20 μM solution) or vehicle (propylene glycol/ethanol/water 1:2:1) was applied to the irradiated dorsal skin at 30 min, 2 h and 4 h post-irradiation. Dorsal skin fold measurements were made with a spring micrometer prior to and at 24 hr and 48 h post-UV exposure. The difference in skin thickness pre- and post-exposure to UVR was calculated for each mouse, and the differences examined between test compound and vehicle control were analysed using an unpaired two-tailed t test.

Row | SMILES | thromboxane synthase inhibition (TXB2 synthesis after exogenous PGH2), selectivity in words [1] | NO synthesis, direction of effect in words [2] | Increase in ear thickness (mean ± SD, ×0.01 mm) [3] [×0.01 mm] | AA-induced ear inflammation / ear thickness compared with vehicle, in words ([3]; mouse, in vivo) | Increase in skin thickness (mean ± SD, ×0.01 mm) ([4]; 24 hrs post-irradiation) [×0.01 mm] | Increase in skin thickness (mean ± SD, ×0.01 mm) ([4]; 48 hrs post-irradiation) [×0.01 mm] | skin oedema, in words [4]
1 | Oc1ccc(C2COc3c(ccc(O)c3O)C2O)cc1 (stereo not drawn) [Compound 2] | selective thromboxane synthase inhibitors | induced it | 6.5 ± 2.9 | significant reduction in ear thickness | 68 ± 24 | 105 ± 22 | significantly inhibited
2 | O=C1c2ccc(O)c(Br)c2OCC1c1ccc(O)cc1 (stereo not drawn) [Compound 1, 3-(4-hydroxyphenyl)-7-hydroxy-8-bromo-chroman-4-one] | selective thromboxane synthase inhibitors | inhibited NO synthesis | 9.5 ± 2.3 |  | 54 ± 20 | 91 ± 7.6 | significantly inhibited
3 | O=C1c2cc(Cl)c(O)cc2OCC1c1ccc(O)cc1 (stereo not drawn) [Compound 4] | selective thromboxane synthase inhibitors | induced it | 9.2 ± 3.6 |  | 63 ± 22 | 145 ± 11 | 

Reference: patent US20090131513A1, “ANTI-INFLAMMATORY MODALITIES” (Novogen Research Pty Ltd., priority 2005, published 2009)
